In patent EP4737450A1 (Longwood Pharmaceuticals (Hangzhou) Co., Ltd, priority 2023, dated 2025):

Molecular target: T1, plasma kallikrein (PKa) (Homo sapiens, UniProt P03952)
T1 construct: purchased R & D 2497-SE
Assay: Inhibitory activity against plasma kallikrein in vitro (fluorescence intensity enzyme assay, Pro-Phe-Arg-AMC substrate)
Assay type: biochemical
Settings: PKa IC50, plasma kallikrein enzyme assay, Pro-Phe-Arg-AMC substrate
Experimental: Test of the inhibitory activities of the compounds of the present invention against plasma kallikrein (PKa), KLK1 and FXIa in vitro.
The final concentrations of enzyme protein and Pro-Phe-Arg-AMC in the reaction mixture were 10 nM and 60 µM, respectively. The starting concentration of the positive reference substance Avoralstat was 100 nM, 3-fold dilution, 10 + 0 dose. 0.05 µL of compound in 100% DMSO was delivered to a 384-well plate by an acoustic liquid delivery technique (Echo665; nanoliter range). Compound duplex test. […] IC50 values and nonlinear regression curve fitting were obtained using GraphPad Prism software.

T1 sequence (P03952 391-638 limits assumed): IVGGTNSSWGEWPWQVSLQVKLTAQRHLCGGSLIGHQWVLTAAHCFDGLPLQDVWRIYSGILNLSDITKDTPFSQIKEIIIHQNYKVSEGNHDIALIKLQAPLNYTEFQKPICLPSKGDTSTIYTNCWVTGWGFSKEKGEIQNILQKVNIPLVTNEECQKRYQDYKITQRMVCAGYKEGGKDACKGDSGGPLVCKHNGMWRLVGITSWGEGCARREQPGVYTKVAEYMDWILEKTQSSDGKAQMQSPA
T1 sequence (P03952 20-390 partner limits assumed): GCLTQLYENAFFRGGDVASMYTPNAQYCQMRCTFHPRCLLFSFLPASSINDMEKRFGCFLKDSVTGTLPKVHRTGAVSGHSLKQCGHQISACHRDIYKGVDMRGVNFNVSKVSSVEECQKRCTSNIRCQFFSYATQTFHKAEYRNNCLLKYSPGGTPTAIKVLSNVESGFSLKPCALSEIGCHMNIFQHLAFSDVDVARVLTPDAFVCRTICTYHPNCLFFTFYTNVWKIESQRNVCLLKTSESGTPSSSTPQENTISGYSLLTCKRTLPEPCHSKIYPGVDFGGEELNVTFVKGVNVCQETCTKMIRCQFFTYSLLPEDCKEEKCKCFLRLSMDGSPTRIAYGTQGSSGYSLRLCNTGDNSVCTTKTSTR

Structure (SMILES)	IC50
COCC1(F)CN(Cc2nn(Cc3ccc(Cn4ccccc4=O)cc3)cc2C(=O)NCc2nccc(OC)c2F)C1 [Compound 205, 3-((3-fluoro-3-(methoxymethyl)azetidin-1-yl)methyl)-N-(3-fluoro-4-methoxypyridin-2-yl)methyl]	8.98 nM
N/C(=N\O)c1ccc(CNC(=O)c2cnn(Cc3ccc(CC4CC4)cc3)c2)cc1 [Compound 348, (Z)-1-(4-(cyclopropylmethyl)benzyl)-N-(4-(N'-hydroxycarbamoyl)benzyl)-1H-pyrazole-4-carboxamide]	3.75 nM
COCc1nn(Cc2ccc(Cn3ccccc3=O)cc2)cc1C(=O)NCc1ncc2c(n1)CNC2 [Compound 144]	25.9 nM
COCc1nn(Cc2ccc(Cn3ccccc3=O)cc2)cc1C(=O)NCc1nccc(SC)c1F [Compound 132]	7.29 nM

Same assay, conditions: plasma kallikrein enzyme assay, Pro-Phe-Arg-AMC substrate; read-out: PKa IC50

Structure (SMILES)	IC50
Cc1cc(N)nc(C)c1CNC(=O)c1ncn(Cc2ccc(-n3ccccc3=O)cc2)n1 [Compound 63]	16.7 nM
COc1ccnc(CNC(=O)c2cn(Cc3ccc(Cn4ccccc4=O)cc3)nc2-c2cnc(O)nc2)c1F [Compound 165]	34.5 nM
COCc1nn(Cc2ccc(N3CC4C(C3)C4(F)F)cc2C#N)cc1C(=O)NCc1nc2c(s1)CNCC2 (stereo not drawn) [Compound 129]	406 nM
O=C(NCc1nccc(NCC2CC2)c1F)c1cn(Cc2ccc(Cn3ccccc3=O)cc2)nc1C1COC1 [Compound 276]	> 1000 nM
COCc1nn(Cc2ccc(Cn3c(=O)ccc4ccccc43)cc2)cc1C(=O)NCc1nccc(OC)c1F [Compound 159]	93.8 nM
Cc1cc(N)nc(C)c1CNC(=O)c1nc(Cc2ccc(Cn3ccccc3=O)cc2)nn1C [Compound 29]	> 1000 nM
N=C(N)c1cnc(CNC(=O)c2cnn(Cc3ccc(CC4CC4)cc3)c2)cn1 [Compound 330]	855 nM
N=C(N)c1cnc(CNC(=O)c2cnn(Cc3ccc(CC4CC4)cc3)c2)nc1 [Compound 329]	42.4 nM
COCc1nn(Cc2ccc(N3CCOCC3=O)cc2)cc1C(=O)NCc1cn2c(n1)CNCC2 [Compound 112]	> 100 nM
Cn1ccc2c(CNC(=O)c3cn(Cc4ccc(Cn5ccccc5=O)cc4)nc3C3COC3)nccc21 [Compound 336]	13.9 nM
COCc1nn(Cc2ccc(-n3ccccc3=O)cc2)cc1C(=O)NCc1nccc(OC)c1F [Compound 92]	> 100 nM
COc1ccnc(CNC(=O)c2cn(Cc3ccc(Cn4ccccc4=O)cc3)nc2N2CC[C@@H](OC)C2)c1F [Compound 171]	86 nM
COCc1nn(Cc2ccc(Cn3ccccc3=O)cc2)cc1C(=O)NCc1cc2cnccc2[nH]1 [Compound 108]	36.8 nM
COCc1nn(Cc2ccc(Oc3ccccc3)cc2)cc1C(=O)NCc1ccn2ccnc2c1 [Compound 141]	> 1000 nM
COc1ccc(C#N)c(CNC(=O)c2cnn(Cc3ccc(Cn4ccccc4=O)cc3)c2)c1C [Compound 189]	180 nM
COc1ccnc(CNC(=O)c2ncn(Cc3ccc(Cn4cc(F)ccc4=O)cc3)n2)c1F [Compound 32]	> 100 nM
COc1ccc(F)c(CNC(=O)c2cn(Cc3ccc(Cn4ccccc4=O)cc3)nc2NC2(C)COC2)c1F [Compound 300]	1.94 nM
CCn1cnc2c1CC[C@@H]2NC(=O)c1cn(Cc2ccc(Cn3ccccc3=O)cc2)nc1COC [Compound 131]	27.9 nM
CN(C)c1ccnc(CNC(=O)c2cn(Cc3ccc(Cn4ccccc4=O)cc3)nc2N2CC3(C2)OCC3(C)C)c1F [Compound 313]	3.24 nM
COc1ccnc(CNC(=O)c2cc(Cc3ccc(Cn4ccccc4=O)cc3)cn2C)c1F [Compound 88]	20.1 nM
Cc1nc(N)ncc1CNC(=O)c1ncn(Cc2ccc(Cn3cc(F)ccc3=O)cc2)n1 [Compound 31]	> 1000 nM
C#Cc1nn(Cc2ccc(Cn3ccccc3=O)cc2)cc1C(=O)NCc1c(C)cc(N)nc1C [Compound 81]	77 nM
Nc1ncc2cc(CNC(=O)c3cnn(Cc4ccc(Cn5ccccc5=O)cc4)c3)ccn12 [Compound 187]	10.8 nM
COc1ccnc(CNC(=O)c2cn(Cc3ccc(Cn4ccccc4=O)cc3)nc2CN2CCCC2=O)c1F [Compound 169]	11.9 nM
COc1ccnc(CNC(=O)c2cn(Cc3ccc(Cn4ccccc4=O)cc3)nc2COCC(=O)N(C)C)c1F [Compound 164]	26.3 nM
N=C(N)c1ccc(CNC(=O)c2cnn(Cc3ccc(OCC4CC4)cc3)c2)cc1 [Compound 360]	3.29 nM
Cn1ncc2cnc(CNC(=O)c3cnn(Cc4ccc(Cn5ccccc5=O)cc4)c3)c(F)c21 [Compound 376]	67 nM

Structure (SMILES)	IC50
Cn1cnc2c1CC[C@H]2NC(=O)c1ncn(Cc2ccc(CN3CCCCC3=O)cc2)n1 [Compound 79]	> 100 nM
COc1ccc(F)c(CNC(=O)c2cn(Cc3ccc(Cn4cc(F)ccc4=O)cc3)nc2N[C@H]2CCOC2)c1F [Compound 298]	2.79 nM
COc1ccc(F)c(CNC(=O)c2cn(Cc3ccc(Cn4cc(F)ccc4=O)cc3)nc2COCCN(C)C)c1F [Compound 219]	4.98 nM
Cc1cc(N)nc(C)c1CNC(=O)c1nc(Cc2ccc(Cn3ccccc3=O)cc2)ns1 [Compound 84]	64.7 nM
CC(C)Cc1ccc(Cn2cc(C(=O)NCc3ccc(C(=N)N)cc3)cn2)cc1 [Compound 312]	2 nM
O=C(NCc1nccc2[nH]ccc12)c1cn(Cc2ccc(Cn3ccccc3=O)cc2)nc1C1COC1 [Compound 325]	38.6 nM
COc1ccc(F)c(CNC(=O)c2cn(Cc3ccc(Cn4cc(F)ccc4=O)c(F)c3)nc2C2CC(OC)C2)c1F (stereo not drawn) [Compound 227]	9.15 nM
Cn1c(CNC(=O)c2cn(Cc3ccc(Cn4ccccc4=O)cc3)nc2C(F)(F)F)cc2cnccc21 [Compound 196]	15.3 nM
O=C(NCc1nccc(C2CC2)c1F)c1cn(Cc2ccc(Cn3ccccc3=O)cc2)nc1C1COC1 [Compound 339]	31.6 nM
COCc1cn(Cc2ccc(Cn3ccccc3=O)cc2)nc1C(=O)N[C@@H]1CCc2c1ncn2C [Compound 59]	> 100 nM
COc1ccnc(CNC(=O)c2cn(Cc3ccc(Cn4ccccc4=O)cc3)nc2OCc2ccccn2)c1F [Compound 229]	22.9 nM
CNc1ccnc(CNC(=O)c2cn(Cc3ccc(Cn4ccccc4=O)cc3)nc2N2CC(F)(F)C2)c1F [Compound 265]	6.91 nM
COCc1nn(Cc2ccc(N3CC4C(C3)C4(F)F)cc2C#N)cc1C(=O)NCc1c(C)cn2cncc2c1C (stereo not drawn) [Compound 188]	2.74 nM
COCC1CN(c2nn(Cc3ccc(Cn4ccccc4=O)cc3)cc2C(=O)NCc2nccc(OC)c2F)C1 [Compound 306]	12.8 nM
Nc1nc2ccc(CNC(=O)c3cnn(Cc4ccc(Cn5ccccc5=O)cc4)c3)cc2s1 [Compound 215]	797 nM
O=C(NCc1nccc(NC2CCC2)c1F)c1cn(Cc2ccc(Cn3ccccc3=O)cc2)nc1N1CC(F)(F)C1 [Compound 278]	> 1000 nM
Cc1cc2ncnn2c(C)c1CNC(=O)c1cn(Cc2ccc(Cn3ccccc3=O)cc2)nc1C(F)(F)F [Compound 206]	318 nM
O=C(NCc1nccc(NC2COC2)c1F)c1cn(Cc2ccc(Cn3ccccc3=O)cc2)nc1N1CC(F)(F)C1 [Compound 332]	540 nM
COc1ccc(F)c(CNC(=O)c2cn(Cc3ccc(Cn4ccccc4=O)cc3)nc2CN2C(=O)CCC2=O)c1F [Compound 248]	2.85 nM
O=C(NCc1nccc(NC2CCC2)c1F)c1cn(Cc2ccc(Cn3ccccc3=O)cc2)nc1C1COC1 [Compound 273]	> 1000 nM
Nc1ccnc(CNC(=O)c2cn(Cc3ccc(Cn4ccccc4=O)cc3)nc2N2CC(F)(F)C2)c1F [Compound 268]	68.6 nM
COc1ccc(F)c(CNC(=O)c2cn(Cc3ccc(Cn4ccccc4=O)cc3)nc2COC2CCC2)c1F [Compound 240]	12.6 nM
COc1ccc(F)c(CNC(=O)c2cn(Cc3ccc(Cn4cc(F)ccc4=O)c(F)c3)nc2C2CC(F)(F)C2)c1F [Compound 228]	16.4 nM
N=C(N)c1cnc(CNC(=O)c2cnn(Cc3ccc(CC4CC4)cc3)c2)c(F)c1 [Compound 358]	6.06 nM
CC(C)CNc1ccnc(CNC(=O)c2cn(Cc3ccc(Cn4ccccc4=O)cc3)nc2C2COC2)c1F [Compound 269]	> 1000 nM
COc1ccnc(CNC(=O)c2cn(Cc3ccc(CN4C(=O)C5(CC5)c5ccc(F)cc54)cc3)nc2C(F)(F)F)c1F [Compound 181]	613 nM
Cn1cc(Cl)c2cnc(CNC(=O)c3cnn(Cc4ccc(Cn5ccccc5=O)cc4)c3)c(F)c21 [Compound 367]	43 nM

Same assay, conditions: read-out: PKa IC50

Structure (SMILES)	IC50
Cc1cc(N)nc(C)c1CNC(=O)c1cnn(Cc2ccc(N3CC4C(C3)C4(F)F)cc2C#N)c1 (stereo not drawn) [Compound 20]	0.155 nM

Molecular target: FXIa (Homo sapiens, UniProt P03951)
Assay: Inhibitory activity against FXIa in vitro (biochemical assay)
Settings: values given in µM
Experimental: Test Example 1. Test of the inhibitory activities of the compounds of the present invention against plasma kallikrein (PKa), KLK1 and FXIa in vitro.
PKK (R & D, Cat # 2497-SE) and Pro-Phe-Arg-AMC (Nanjing Peptide, Cat # NJP23946) solutions were prepared in reaction buffer (50 mM Tris-HCl, pH 7.5, 250 mM NaCl). The final concentrations of enzyme protein and Pro-Phe-Arg-AMC in the reaction mixture were 10 nM and 60 µM, respectively. The starting concentration of the positive reference substance Avoralstat was 100 nM, 3-fold dilution, 10 + 0 dose. 0.05 µL of compound in 100% DMSO was delivered to a 384-well plate by an acoustic liquid delivery technique (Echo665; nanoliter range). Compound duplex test. 5 µL of 2 × enzyme solution was transferred to a 384 reaction plate and centrifuged at 1000 rpm for 1 minute, incubated at 25°C for 15 minutes; 5 µL of 2 × Pro-Phe-Arg-AMC solution was transferred to a 384 reaction plate, centrifuged at 1000 rpm for 1 minute, incubated at 25°C for 3 hours. […] IC50 values and nonlinear regression curve fitting were obtained using GraphPad Prism software.

FXIa, sequence (P03951 388-625 limits assumed): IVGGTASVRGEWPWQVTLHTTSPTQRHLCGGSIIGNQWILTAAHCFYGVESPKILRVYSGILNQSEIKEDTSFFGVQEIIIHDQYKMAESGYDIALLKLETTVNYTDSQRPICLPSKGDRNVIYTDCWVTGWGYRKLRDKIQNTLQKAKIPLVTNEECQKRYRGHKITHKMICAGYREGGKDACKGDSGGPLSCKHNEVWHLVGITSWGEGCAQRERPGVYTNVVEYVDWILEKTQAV
FXIa, sequence (P03951 19-387 partner limits assumed): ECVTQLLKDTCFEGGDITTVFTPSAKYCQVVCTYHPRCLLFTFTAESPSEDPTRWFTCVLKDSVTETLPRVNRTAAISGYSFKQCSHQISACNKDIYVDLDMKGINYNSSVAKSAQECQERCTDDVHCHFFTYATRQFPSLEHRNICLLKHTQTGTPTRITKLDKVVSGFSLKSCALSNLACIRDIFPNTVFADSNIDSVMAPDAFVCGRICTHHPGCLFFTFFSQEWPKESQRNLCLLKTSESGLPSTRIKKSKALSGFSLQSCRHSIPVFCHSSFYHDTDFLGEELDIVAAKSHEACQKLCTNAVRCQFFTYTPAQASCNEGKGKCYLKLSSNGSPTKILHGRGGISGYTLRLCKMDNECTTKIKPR

Structure (SMILES)	IC50
Cc1cc(N)nc(C)c1CNC(=O)c1cnn(Cc2ccc(N3CC4C(C3)C4(F)F)cc2C#N)c1 (stereo not drawn) [Compound 20]	> 10 µM
